Measured values: US20250011344A1 (priority 2021, published 2025)
Where “and” joins values, the source holds several entries; their conditions need not be identical. Identical values can stand only once. Counter-ions that a name gives are not always drawn.

How the values were obtained:
[1] = PO 2 mg/Kg, FIG. 15, time points other than the one quantified
[2] = PK of psilocin after a single intravenous administration in rats; conditions: IV 1 mg/kg nominal dose; for half-life: T½
[3] = psilocin in plasma, individual animal
[4] = psilocin in plasma, individual animal, 1 mg/kg

SMILES	Plasma concentrations of metabolite psilocin at other time points [1]	AUC(0-inf) ([2]; male, Sprague-Dawley, rat, plasma, iv, 1 mg/kg, AUCINF_obs, Mean of animals)	AUC(0-t) ([2]; male, Sprague-Dawley, rat, plasma, iv, 1 mg/kg, AUClast, Mean of animals)	Cmax ([2]; male, Sprague-Dawley, rat, plasma, iv, 1 mg/kg, Cmax, Mean of animals)	half-life ([2]; male, Sprague-Dawley, rat, plasma, iv, 1 mg/kg, Mean of animals)	half-life ([2]; male, Sprague-Dawley, rat, plasma, iv, 1 mg/kg, individual animal)	Tlast ([2]; psilocin in plasma, Mean of animals)	Tlast [2, 3]	Tmax [2, 3]	AUCINF_obs [2, 4]	AUClast [2, 4]	Cmax [2, 4]	T½ [2, 4]
CN(C)CCc1c[nH]c2cccc(OP(=O)(OC(C)(C)C)OC(C)(C)C)c12 [Di-tert-butyl [3-[2-(dimethylamino)ethyl]-1H-indol-4-yl] phosphate HCl salt]	below limit of quantification (BLQ)	–	–	–	–	–	–	–	–	–	–	–	–
CN(C)CCc1c[nH]c2cccc(O)c12 [Psilocin, psilocin]	–	1580 ng·h/mL	1920 ng·h/mL	1300 ng/mL	28.7 min	24.8 min	24.00 h	24.00 h	15 min	982 ng·h/mL and 3390 ng·h/mL and 368 ng·h/mL	1340 ng·h/mL and 3780 ng·h/mL and 646 ng·h/mL	1110 ng/mL and 2450 ng/mL and 340 ng/mL	21.2 min and 40.1 min
